Experimental data published in patent US20030059483A1, “Color stable hypochlorous sanitizer and methods” (priority 1999, published 2003).

Assays:
Assay type in all cases: physicochemical
[1] = Color longevity at varying active chlorine and dye level, pH 5.8; details: for Initial Color/Appearance / Time needed for solution to become colorless: 1 ppm dye
[2] = Dye and chlorine stability test, effect of pH; details: 1 ppm dye; for Initial Color/Appearance: additional formulations; for Initial Color/Appearance / Time needed for solution to become colorless: 100 ppm active chlorine; for Color/Appearance: initial 100 ppm chlorine
[3] = Chlorine stability of acid sanitizer solutions; details: chlorine 12 ppm, pH 5.13

In the case of `COc1cc(S(=O)(=O)[O-])c(C)cc1N=Nc1c(O)ccc2cc(S(=O)(=O)[O-])ccc12.[Na+].[Na+]` [FD&C Red #40], the “Initial Color/Appearance” value ([1]; 10 ppm available chlorine) is reported as “visible”, the “Time needed for solution to become colorless” value (“Time needed for solution” below) ([1]; 10 ppm available chlorine) is reported as “more than 6.0 hours” and the “Initial Color/Appearance” value ([1]; 30 ppm available chlorine) is reported as “visible”. For the same compound, the “Time needed for solution” value ([1]; 30 ppm available chlorine) was 6.0 h, the “Initial Color/Appearance” value ([1]; 50 ppm available chlorine) was “visible” and the “Time needed for solution” value ([1]; 50 ppm available chlorine) was 5.0 h. For the same compound, the “Initial Color/Appearance” value ([1]; 80 ppm available chlorine) was “visible”, the “Time needed for solution” value ([1]; 80 ppm available chlorine) was 4.5 h and the “Initial Color/Appearance” value ([1]; 100 ppm available chlorine) was “visible”. For the same compound, the “Time needed for solution” value ([1]; 100 ppm available chlorine) was 3.0 h, the “relationship between dye concentration and color longevity” value ([1]; dye level 0.1 to 0.4 wt-%, 100 ppm available chlorine) was “linear relationship between dye concentration and color longevity” and the “Initial Color/Appearance” value ([2]; pH buffered at 2) was “colorless”. The “Initial Color/Appearance” value ([2]; pH buffered at 4) was “visible color”, the “Initial Color/Appearance” value ([2]; pH buffered at 5.4) was “visible color” and the “Initial Color/Appearance” value ([2]; pH buffered at 5.8) was “visible color”. For the same compound, the “Initial Color/Appearance” value ([2]; pH buffered at 6) was “visible color”, the “Initial Color/Appearance” value ([2]; pH buffered at 8) was “visible color” and the “Initial Color/Appearance” value ([2]; pH buffered at 10) was “colorless”. For the same compound, the “Initial Color/Appearance” value ([2]; pH buffered at 12) was “colorless”, the Color/Appearance ([2]; pH buffered at 2, 0.0 hours) was “color gone immediately” and the “Time needed for solution” value ([2]; pH buffered at 2) was “none”. For the same compound, the Color/Appearance ([2]; pH buffered at 2, 175 hours) was “no color”, the “Time needed for solution” value ([2]; pH buffered at 4) was 2.5 h and the Color/Appearance ([2]; pH buffered at 4, 2.5 hours) was “color gone”. The Color/Appearance ([2]; pH buffered at 4, 175 hours) was “no color”, the “Time needed for solution” value ([2]; pH buffered at 5.4) was 15 h and the “Time needed for solution” value ([2]; pH buffered at 5.8) was 5.0 h. The “Time needed for solution” value ([2]; pH buffered at 6) was 4.0 h, the Color/Appearance ([2]; pH buffered at 6, 5.0 hours) was “slightly visible” and the Color/Appearance ([2]; pH buffered at 6, 175 hours) was “no color”. The “Time needed for solution” value ([2]; pH buffered at 8) was 0.25 h, the Color/Appearance ([2]; pH buffered at 8, 0.25 hours) was “color gone” and the Color/Appearance ([2]; pH buffered at 8, 175 hours) was “no color”. For the same compound, the Color/Appearance ([2]; pH buffered at 10, 0.0 hours) was “color gone immediately”, the “Time needed for solution” value ([2]; pH buffered at 10) was “none” and the Color/Appearance ([2]; pH buffered at 10, 175 hours) was “no color”. The Color/Appearance ([2]; pH buffered at 12, 0.0 hours) was “color gone immediately”, the “Time needed for solution” value ([2]; pH buffered at 12) was “none” and the Color/Appearance ([2]; pH buffered at 12, 175 hours) was “no color”.

For “Chlorinated trisodium phosphate [Chlorinated TSP]”, the “Chlorine (ppm) Conc. 0 Time” value ([3]; 0 time) was 12.7 ppm, the “Chlorine (ppm) Conc. 4 Hours” value ([3]; 4 hours) was 9.93 ppm and the “Chlorine (ppm) Conc. 24 Hours” value ([3]; 24 hours) was 5.67 ppm.
